Laboratory results reported in patent US20190167561A1, “METHODS AND COMPOSITIONS FOR REDUCING THE GRAYING OF HAIR” (Natura Cosmeticos SA, priority 2016, published 2019).

Key:
[1] = test system: human primary hair follicles (melanocyte stem cells at the bulge area); test: Pigmentation assay on isolated human primary hair follicles in culture, H2O2 stress; type: cell-based; settings: positive control, 3% H2O2
Text: A novel platform for assaying human primary hair follicles in culture was developed to profile anti-graying potentially active agents (see FIG. 1). Normal human scalp specimens were obtained from various surgeries or from donor and recipient scalp hair derived from plastic surgery. […] Intact human skin specimens were implanted in semi-solid agarose (2% agarose diluted with Williams' medium E (Gibco™) at 1:5 ratio). The hair follicle culture medium was based on Williams' medium E (Gibco™) supplemented with 2 mmol/L L-glutamine, hydrocortisone 10 ng/ml, insulin 10 μg/ml, penicillin 100 U/ml, streptomycin 100 μg/ml, and amphotericin B 25 μg/ml. To maximize the effects of the test formulations and to exclude the variability of delivery ability of the formulations through the epidermis, the test formulations were applied directly at the bulge area of the follicles using the method as follows: (1) tissue preparation and culture for 8-24 hrs. (2) Isolation of individual follicles (3) Vertically embedding in semisolid media (4) Treatment with test formulation/Positive control on the bulge area of the hair follicles (5) Incubation for 24 hrs. (6) 3% H2O2 treatment (7) Incubation for 2 hrs. (8) Repositioning in semisolid media (9) Z-stacking imaging & Analysis on day 1, 3, 7 after H2O2 treatment For the experiment, a total of 602 follicles from 9 different donors were utilized. […]

ROS in hair follicles = test: Reactive Oxygen Species (ROS) assay on individual follicles; type: cell-based, human; settings: NAC pretreatment, ionizing radiation 4, 8 or 12 Gy or 3% H2O2; ROS labeling 2 hours after treatment; compared to IR or H2O2 alone
Method: A Reactive Oxygen Species (ROS) assay was used for individual follicle observation with 5-(and-6)-chloromethyl-2′,7′-dichlorodihydrofluorescein diacetate, acetyl ester (CM-H2DCFDA). CM-H2DCFDA is a chloromethyl derivative of […], 2′,7′-dichlorohydrofluorescein diacetate (H2DCFDA), and is useful as an indicator for general ROS in cells. ROS should be labeled after 2 hours and imaged in 20 minutes, and the protocol included dissection of the follicles first before H2O2 treatment. […] The ROS detection protocol was as follows: (1) tissue preparation and culture (2) Isolation of individual follicles (3) Vertically embedding in semisolid media (4) Antioxidant treatment (NAC) on the bulge area of the hair follicles (5) Incubation for […]. (6) Treatment with ionizing radiation (e.g., 8.0 Gray) or H2O2 (7) Incubation for 2 hrs. […] NAC was applied for 24 hours before the ionizing radiation or H2O2 treatment and then 2 hours after treatment, ROS labeling and imaging have been done. The ionizing radiation was administered at doses of 4 gy, 8 Gy, or 12 Gy. Topical administration of hydrogen peroxide was used at a dose of 3%. The ROS positive cells were counted and they were normalized to DAPI positive cells.

hair follicles = test: Pigmented cell counts after NAC treatment (FIG. 12); type: cell-based, human; settings: statistical significance not evaluable
[2] = test system: melanocyte stem cells (MSCs) in the bulge areas of hair follicles of human scalp skin; test: Melanocyte stem cell damage and pigmentation assay, topical application on intact human skin specimens; type: cell-based; settings: topical 24 hours, then 3% H2O2 24 hours; eight follicles per treatment
Method: Formulation A, placebo A, or the positive control (CPC) were topically applied to the human skin specimens for 24 hours. The specimens were next treated with 3% hydrogen peroxide (H2O2) for 24 hours at 37° C. and incubated in 5% CO2 to trigger the DNA-damage response. After 24 hours of hydrogen peroxide treatment, all portions of the hair follicles were isolated from stress treated human skin scalp. Upon isolation, the hair follicles were washed gently several times in Phosphate-buffered saline (PBS) and transferred intact into soft agar with fresh growth medium in a cell culture incubator at 37° C. and 5% CO2. Hair follicles were examined under bright field microscopy after completion of the hydrogen peroxide treatment daily from day 0 (completion of peroxide treatment) to day 7. Pigmented melanocyte stem cells (MSCs) found in the bulge areas of hair follicles were counted in the bright field view. Formulation A and Placebo A, and the positive control (CPC) were tested, and eight follicles were investigated from each treatment. Paired T-test was applied for data analysis. […] P-value of 0.05 was set as the threshold of statistical significance. […] Eight follicles were analyzed in each test set.

In the case of `CC(=O)N[C@@H](CS)C(=O)O` [NAC, N-acetyl-cysteine], the “pigmentation prevention at the bulge area of the follicle” value [1] is reported as “effective on the pigmentation prevention with statistical significance”, the “ROS generation (ROS positive cells normalized to DAPI positive cells)” value (ROS in hair follicles) is reported as “decreased compared to IR or H2O2 treatment alone” and the “pigmented cell counts after the NAC treatment” value (hair follicles) is reported as “tendency showing decreased pigmented cell counts”. The hydrogen peroxide-induced pigmentation [2] was “suppressed”.
